According to PMC9934367, “Functional impact of subunit composition and compensation on Drosophila melanogaster nicotinic receptors–targets of neonicotinoids” (PLOS Genetics, 2023):
Where two headings read alike, the source gives them in different places.

How the values were obtained:
[1] = test system: T1, Dα1/Dα2/Dα3/Dβ1/Dβ2 nAChR; test: Voltage-clamp electrophysiology, nAChR expressed in X. laevis oocytes; assay type: cell-based, D. melanogaster; conditions: mean ± standard error (n = 5)
T1 construct: Dα1 (NP_524481); Dα2 (NP_524482); Dβ1 (NP_523927); Dβ2 (NP_524483); expressed in transfected cells; host or cells: Xenopus laevis oocytes (cRNA injection)
Procedure: (§1) cDNAs of the nAChR subunits and co-factors were cloned into pcDNA3.1 (+) vector (Thermo Fisher Scientific). The accession numbers of the nAChR subunits and cofactors are as follows: Dα1 (NP_524481), Dα2 (NP_524482), Dα3 (NP_525079), Dα4 (CAB77445), Dβ1 (NP_523927), Dβ2 (NP_524483), Dβ3 (NP_525098), DmRIC-3 (CAP16647), DmUNC-50 (NP_649813), and DmTMX3 (NP_648847). cRNAs were prepared using the mMESSAGE mMACHINE T7 ULTRA Transcription Kit (Thermo Fisher Scientific, #AM1345) according to the manual with the cDNA template which was cut with appropriate restriction enzymes at the 3’ end of the cDNA.
(§2) We minimised the use of X. laevis according to the UK Animals (Scientific Procedures) Act, 1986. […] Oocytes were defolliculated after collagenase treatment in Ca^2+-free standard oocyte saline (Ca^2+-free SOS). cRNAs of the nAChR subunits and co-factors mixed at a concentration of 0.1 mg/mL was injected into oocytes at a volume of 50 nL. Then the oocytes were incubated in the incubation medium (SOS supplemented with sodium pyruvate (Nacalai Tesque, #13058–12), penicillin-streptomycin (MilliporeSigma, #P4333), gentamycin (Nacalai Tesque, #16672–04), and 4% horse serum (Thermo Fisher Scientific, #26050–070) for 3−4 days prior to electrophysiology.
(§3) Each defolliculated X. laevis oocyte was secured in a Perspex recording chamber and perfused with the standard oocyte saline (SOS) containing 0.5 μM atropine (SOSA) at a flow rate of 7−10 mL/min [48]. Two glass electrodes filled with 2 M KCl were impaled into each oocyte and the membrane potential was clamped at -100 mV. […] The peak amplitude of the response was measured and analysed by pCLAMP (Molecular Devices, USA).
(§4) Y=Imax/1+10^(logEC50‐X)nH
(§5) Where Y is the normalised response, X is log[ligand (M)], EC50 is the half maximal concentration (M), Imax is the maximum normalised response and nH is the Hill coefficient.

Dα1/Dα2/Dβ1 nAChR = biological target: T2, Dα1/Dα2/Dβ1 nAChR (Drosophila melanogaster, UniProt P04755+P09478+P17644); test: as above; assay type: cell-based, D. melanogaster
T2 construct: Dα1 (NP_524481); Dα2 (NP_524482); Dβ1 (NP_523927); expressed in transfected cells; host or cells: Xenopus laevis oocytes (cRNA injection)
Procedure: as §1, §2, §3, §4, §5

Dα1/Dα2/Dβ1/Dβ2 nAChR = biological target: T3, Dα1/Dα2/Dβ1/Dβ2 nAChR (Drosophila melanogaster, UniProt P04755+P09478+P17644+P25162); test: as above; assay type: cell-based, D. melanogaster; conditions: mean ± standard error (n = 5)
T3 construct: Dα1 (NP_524481); Dα2 (NP_524482); Dβ1 (NP_523927); Dβ2 (NP_524483); expressed in transfected cells; host or cells: Xenopus laevis oocytes (cRNA injection)
Procedure: as §1, §2, §3, §4, §5

[2] = biological target: T4, Dα1/Dα2/Dβ1/Dβ2/Dβ3 nAChR; test: as above; assay type: cell-based, D. melanogaster; conditions: mean ± standard error (n = 5); for Imax: normalised to maximum ACh response
T4 construct: Dα1 (NP_524481); Dα2 (NP_524482); Dβ1 (NP_523927); Dβ2 (NP_524483); expressed in transfected cells; host or cells: Xenopus laevis oocytes (cRNA injection)
Procedure: as §1, §2, §3, §4, §5

[3] = biological target: T5, Dα1/Dα3/Dβ1/Dβ2/Dβ3 nAChR; test: as above; assay type: cell-based, D. melanogaster; conditions: mean ± standard error (n = 5); for Imax: normalised to maximum ACh response
T5 construct: Dα1 (NP_524481); Dβ1 (NP_523927); Dβ2 (NP_524483); expressed in transfected cells; host or cells: Xenopus laevis oocytes (cRNA injection)
Procedure: as §1, §2, §3, §4, §5

Dα1/Dβ1 nAChR = biological target: T6, Dα1/Dβ1 nAChR (Drosophila melanogaster, UniProt P04755+P09478); test: as above; assay type: cell-based, D. melanogaster; conditions: mean ± standard error (n = 5)
T6 construct: Dα1 (NP_524481); Dβ1 (NP_523927); expressed in transfected cells; host or cells: Xenopus laevis oocytes (cRNA injection)
Procedure: as §1, §2, §3, §4, §5

Dα1/Dβ1/Dβ2 nAChR = biological target: T7, Dα1/Dβ1/Dβ2 nAChR (Drosophila melanogaster, UniProt P04755+P09478+P25162); test: as above; assay type: cell-based, D. melanogaster
T7 construct: Dα1 (NP_524481); Dβ1 (NP_523927); Dβ2 (NP_524483); expressed in transfected cells; host or cells: Xenopus laevis oocytes (cRNA injection)
Procedure: as §1, §2, §3, §4, §5

Dα2/Dα3/Dβ1 nAChR = biological target: T8, Dα2/Dα3/Dβ1 nAChR (Drosophila melanogaster, UniProt P04755+P17644+Q9W3G6); test: as above; assay type: cell-based, D. melanogaster; conditions: Dα2/Dα3/Dβ1 nAChR, mean ± standard error (n = 5)
T8 construct: Dα2 (NP_524482); Dβ1 (NP_523927); expressed in transfected cells; host or cells: Xenopus laevis oocytes (cRNA injection)
Procedure: as §1, §2, §3, §4, §5

Dα2/Dα3/Dβ1/Dβ2 nAChR = biological target: T9, Dα2/Dα3/Dβ1/Dβ2 nAChR (Drosophila melanogaster, UniProt P04755+P17644+P25162+Q9W3G6); test: as above; assay type: cell-based, D. melanogaster; conditions: mean ± standard error (n = 5)
T9 construct: Dα2 (NP_524482); Dβ1 (NP_523927); Dβ2 (NP_524483); expressed in transfected cells; host or cells: Xenopus laevis oocytes (cRNA injection)
Procedure: as §1, §2, §3, §4, §5

[4] = biological target: T10, Dα2/Dα3/Dβ1/Dβ2/Dβ3 nAChR; test: as above; assay type: cell-based, D. melanogaster; conditions: mean ± standard error (n = 5); for Imax: normalised to maximum ACh response
T10 construct: Dα2 (NP_524482); Dβ1 (NP_523927); Dβ2 (NP_524483); expressed in transfected cells; host or cells: Xenopus laevis oocytes (cRNA injection)
Procedure: as §1, §2, §3, §4, §5

Dα3/Dβ1/Dβ2 nAChR = biological target: T11, Dα3/Dβ1/Dβ2 nAChR (Drosophila melanogaster, UniProt P04755+P25162+Q9W3G6); test: as above; assay type: cell-based, D. melanogaster; conditions: Dα3/Dβ1/Dβ2 nAChR
T11 construct: Dβ1 (NP_523927); Dβ2 (NP_524483); expressed in transfected cells; host or cells: Xenopus laevis oocytes (cRNA injection)
Procedure: as §1, §2, §3, §4, §5

[5] = biological target: Dα1/Dα2/Dα4/Dβ1/Dβ2 nAChR; conditions: mean ± standard error (n = 5); for Imax: normalised to maximum ACh response
Procedure: as §1, §2, §3, §4, §5

[6] = biological target: Dα1/Dα3/Dα4/Dβ1/Dβ2 nAChR; conditions: mean ± standard error (n = 5); for Imax: normalised to maximum ACh response
Procedure: as §1, §2, §3, §4, §5

[7] = biological target: Dα2/Dα3/Dα4/Dβ1/Dβ2 nAChR; conditions: mean ± standard error (n = 5); for Imax: normalised to maximum ACh response
Procedure: as §1, §2, §3, §4, §5

[8] = normalised to maximum ACh response
[9] = efficacy, mean ± standard error (n = 5)
[10] = mean ± standard error (n = 5), read-out: pEC50 (converted)
[11] = normalised to maximum ACh response, mean ± standard error (n = 5)

Compound	Imax ([1]; efficacy)	pEC50 [1]	Imax [1, 8]	Imax (Dα1/Dα2/Dβ1 nAChR; [9])	Imax (Dα1/Dα2/Dβ1 nAChR; [11])	Imax (Dα1/Dα2/Dβ1/Dβ2 nAChR; efficacy)	EC50 (Dα1/Dα2/Dβ1/Dβ2 nAChR) [µM]	Imax (Dα1/Dα2/Dβ1/Dβ2 nAChR; [8])	pEC50 [2]	Imax [2]	pEC50 [3]	Imax [3]	Imax (Dα1/Dβ1 nAChR; efficacy)	EC50 (Dα1/Dβ1 nAChR) [µM]	Imax (Dα1/Dβ1 nAChR; [8])	Imax (Dα1/Dβ1/Dβ2 nAChR; [9])	Imax (Dα1/Dβ1/Dβ2 nAChR; [11])	EC50 (Dα2/Dα3/Dβ1 nAChR) [µM]	Imax (Dα2/Dα3/Dβ1 nAChR; [8])	Imax (Dα2/Dα3/Dβ1 nAChR; efficacy)	other results
O=[N+]([O-])NC1=NCCN1Cc1ccc(Cl)nc1 [Imidacloprid, imidacloprid]	0.142	6.47 ± 0.14	0.142 ± 0.011	0.031	0.031 ± 0.002	0.165	0.355	0.165 ± 0.016	6.27 ± 0.21	0.080 ± 0.007	7.72 ± 0.11	0.140 ± 0.008	0.122	0.0692	0.122 ± 0.007	0.076	0.076 ± 0.006	0.132	0.101 ± 0.016	0.101	Imax ([1]; normalised to maximum ACh response, listed as imidacloprid): 0.142; EC50 (Dα1/Dα2/Dβ1 nAChR; [10]): 0.195 µM; Imax ([2]; listed as imidacloprid): 0.080; EC50 (Dα1/Dβ1/Dβ2 nAChR; read-out: EC50): 0.102 µM; Imax (Dα2/Dα3/Dβ1/Dβ2 nAChR; efficacy): 0.125; EC50 (Dα2/Dα3/Dβ1/Dβ2 nAChR): 0.1 µM; Imax (Dα2/Dα3/Dβ1/Dβ2 nAChR; [8]): 0.125 ± 0.018; pEC50 [4]: 7.75 ± 0.31; Imax [4]: 0.021 ± 0.003; Imax ([4]; listed as imidacloprid): 0.021; Imax (Dα3/Dβ1/Dβ2 nAChR; [11]): 0.039 ± 0.002; EC50 (Dα3/Dβ1/Dβ2 nAChR; read-out: EC50): 0.00525 µM; Imax (Dα3/Dβ1/Dβ2 nAChR; [9]): 0.039; pEC50 [5]: 6.48 ± 0.28; Imax [5]: 0.172 ± 0.020; pEC50 [6]: 7.30 ± 0.17; Imax [6]: 0.101 ± 0.008; pEC50 [7]: 7.40 ± 0.20; Imax [7]: 0.027 ± 0.002; Imax ([7]; listed as imidacloprid): 0.027
N#C/N=C1\SCCN1Cc1ccc(Cl)nc1 [Thiacloprid, thiacloprid]	0.059	7.18 ± 0.17	0.059 ± 0.006	0.025	0.025 ± 0.001	0.074	0.0794	0.074 ± 0.014	7.71 ± 0.43	0.023 ± 0.004	8.63 ± 0.23	0.089 ± 0.009	0.091	0.0162	0.091 ± 0.009	0.043	0.043 ± 0.002	0.12	0.045 ± 0.006	0.045	Imax ([1]; normalised to maximum ACh response, listed as thiacloprid): 0.059; EC50 (Dα1/Dα2/Dβ1 nAChR; read-out: EC50): 0.12 µM; Imax ([2]; listed as thiacloprid): 0.023; EC50 (Dα1/Dβ1/Dβ2 nAChR; [10]): 0.0138 µM; Imax (Dα2/Dα3/Dβ1/Dβ2 nAChR; efficacy): 0.017; EC50 (Dα2/Dα3/Dβ1/Dβ2 nAChR): 0.00832 µM; Imax (Dα2/Dα3/Dβ1/Dβ2 nAChR; [8]): 0.017 ± 0.002; pEC50 [4]: 8.31 ± 0.17; Imax [4]: 0.010 ± 0.001; Imax ([4]; listed as thiacloprid): 0.010; EC50 (Dα3/Dβ1/Dβ2 nAChR; [10]): 0.00479 µM; Imax (Dα3/Dβ1/Dβ2 nAChR; [11]): 0.022 ± 0.003; Imax (Dα3/Dβ1/Dβ2 nAChR; [9]): 0.022; pEC50 [5]: 7.01 ± 0.19; Imax [5]: 0.066 ± 0.007; pEC50 [6]: 7.96 ± 0.10; Imax [6]: 0.026 ± 0.001; pEC50 [7]: 7.99 ± 0.20; Imax [7]: 0.018 ± 0.002; Imax ([7]; listed as thiacloprid): 0.018
